Assay results published in patent publication US7125990B2, “Imidazolyl derivatives as corticotropin releasing factor inhibitors” (Bristol-Myers Squibb COmpany, priority 2001, dated 2006).

The compounds below were run against T1, CRF1 receptors (Homo sapiens, UniProt P34998) (assay: CRF1 receptor radioligand binding assay ([125I]-oCRF competition, IMR-32 cell membranes)). Settings: IMR-32 cell membranes, [125I]-oCRF 100 pM; read-out: Ki (CRF-1R).
T1 construct: endogenous in cells; host or cells: IMR-32 cells, transformed with 2.5 µM 5'-bromo-2'-deoxyuridine for 10 days; membrane preparation
T1 sequence (P34998 24-415): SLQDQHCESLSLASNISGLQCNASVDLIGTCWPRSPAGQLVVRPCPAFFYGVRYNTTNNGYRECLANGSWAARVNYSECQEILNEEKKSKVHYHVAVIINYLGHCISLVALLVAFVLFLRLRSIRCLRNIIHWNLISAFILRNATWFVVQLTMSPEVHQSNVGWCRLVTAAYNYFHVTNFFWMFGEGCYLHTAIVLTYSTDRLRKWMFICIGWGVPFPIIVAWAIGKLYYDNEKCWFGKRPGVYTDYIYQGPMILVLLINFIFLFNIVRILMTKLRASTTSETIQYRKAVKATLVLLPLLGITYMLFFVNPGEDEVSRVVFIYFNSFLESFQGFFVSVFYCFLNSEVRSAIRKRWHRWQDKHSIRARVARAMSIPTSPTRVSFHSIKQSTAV
How it was run: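 Buffer: Tris pH 7.2 with MgCl2, BSA, Triton X-100, aprotinin, leupeptin; reaction stopped with ice-cold wash and filtered. Nonspecific binding set with 10 μM oCRF.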

Row | Ki [nM] | SMILES
1 | < 1000 | CCCN(CCC1CC1)Cc1c(C(F)(F)F)nc2n(-c3c(C)cc(C)cc3C)c3ccccc3n12 [Example 164, (2-Cyclopropyl-ethyl)-propyl-[2-trifluoromethyl-8-(2,4,6-trimethyl-phenyl)-8H-1,3a,8-triaza-cyclopenta[α]inden-3-ylmethyl]-amine]
2 | < 1000 | Cc1cc(C)c(-n2c3ccccc3n3c(CN(CCC4CC4)CCC(F)(F)F)c(C(F)(F)F)nc23)c(C)c1 [Example 166, (2-Cyclopropyl-ethyl)-[2-trifluoromethyl-8-(2,4,6-trimethyl-phenyl)-8H-1,3a,8-triaza-cyclopenta[α]inden-3-ylmethyl]-(3,3,3-trifluoro-propyl)-amine]
3 | < 1000 | Cc1cc(C)c(-n2c3ccccc3n3c(CN(CCC4CC4)CC(F)(F)F)c(C(F)(F)F)nc23)c(C)c1 [Example 169, (2-Cyclopropyl-ethyl)-(2,2,2-trifluoro-ethyl)-[2-trifluoromethyl-8-(2,4,6-trimethyl-phenyl)-8H-1,3a,8-triaza-cyclopenta[α]inden-3-ylmethyl]-amine]
4 | < 1000 | CCCCN(CC)Cc1c(C(F)(F)F)nc2n(-c3c(C)cc(C)cc3C)c3ccccc3n12 [Example 170, Butyl-ethyl-[2-trifluoromethyl-8-(2,4,6-trimethyl-phenyl)-8H-1,3a,8-triaza-cyclopenta[α]inden-3-ylmethyl]-amine]
5 | < 10000 | CCN(CCC1CC1)Cc1c(C(F)(F)F)nc2n(-c3c(C)cc(C)cc3C)c3ccccc3n12 [Example 172, (2-Cyclopropyl-ethyl)-ethyl-[2-trifluoromethyl-8-(2,4,6-trimethyl-phenyl)-8H-1,3a,8-triaza-cyclopenta[α]inden-3-ylmethyl]-amine]

Further lines, the compound ahead of its results:

Row | SMILES | Ki [nM]
6 | C=CCN(CC=C)Cc1c(C(F)(F)F)nc2n(-c3c(C)cc(C)cc3C)c3ccccc3n12 [Example 160, Diallyl-[2-trifluoromethyl-8-(2,4,6-trimethyl-phenyl)-8H-1,3a,8-triaza-cyclopenta[α]inden-3-ylmethyl]-amine] | < 1000
7 | CCCN(CCc1ccccc1)Cc1c(C(F)(F)F)nc2n(-c3c(C)cc(C)cc3C)c3ccccc3n12 [Example 161, Phenethyl-propyl-[2-trifluoromethyl-8-(2,4,6-trimethyl-phenyl)-8H-1,3a,8-triaza-cyclopenta[α]inden-3-ylmethyl]-amine] | < 1000
8 | CCN(CCc1ccccc1)Cc1c(C(F)(F)F)nc2n(-c3c(C)cc(C)cc3C)c3ccccc3n12 [Example 163, Ethyl-phenethyl-[2-trifluoromethyl-8-(2,4,6-trimethyl-phenyl)-8H-1,3a,8-triaza-cyclopenta[α]inden-3-ylmethyl]-amine] | < 1000
9 | Cc1cc(C)c(-n2c3ccccc3n3c(CN(C)Cc4ccccc4)c(C(F)(F)F)nc23)c(C)c1 [Example 167, Benzyl-methyl-[2-trifluoromethyl-8-(2,4,6-trimethyl-phenyl)-8H-1,3a,8-triaza-cyclopenta[α]inden-3-ylmethyl]-amine] | < 1000
10 | Cc1cc(C)c(-n2c3ccccc3n3c(CN(CCc4ccccc4)CC(F)(F)F)c(C(F)(F)F)nc23)c(C)c1 [Example 171, Phenethyl-(2,2,2-trifluoro-ethyl)-[2-trifluoromethyl-8-(2,4,6-trimethyl-phenyl)-8H-1,3a,8-triaza-cyclopenta[α]inden-3-ylmethyl]-amine] | < 1000
11 | CCN(Cc1ccccc1)Cc1c(C(F)(F)F)nc2n(-c3c(C)cc(C)cc3C)c3ccccc3n12 [Example 173, Benzyl-ethyl-[2-trifluoromethyl-8-(2,4,6-trimethyl-phenyl)-8H-1,3a,8-triaza-cyclopenta[α]inden-3-ylmethyl]-amine] | < 10000
12 | CCN(CCc1ccccc1)Cc1c(C(F)(F)F)nc2n(-c3c(C)cc(C)cc3C)c3ccccc3n12 [Example 174, Ethyl-phenethyl-[2-trifluoromethyl-8-(2,4,6-trimethyl-phenyl)-8H-1,3a,8-triaza-cyclopenta[α]inden-3-ylmethyl]-amine] | < 10000
